In patent US12582653B2, “Method for treating idiopathic pulmonary fibrosis” (BEIJING TIDE PHARMACEUTICAL CO., LTD., priority 2020, dated 2026):

Columns and labels:
[1] = system: BLM-induced mouse IPF model; test: BLM-induced mouse IPF model (Example 2); type: in vivo; conditions: for up-regulation of TIMP-1 mRNA expression in the lung tissue induced by bleomycin / up-regulation of COL1A1 mRNA expression in the lung tissue induced by bleomycin: real-time fluorescent quantitative PCR, β-actin reference; for up-regulation of TIMP-1 mRNA expression in the lung tissue induced by bleomycin: FIG. 5A; for up-regulation of COL1A1 mRNA expression in the lung tissue induced by bleomycin: FIG. 5B
Experimental: 60 C57BL/6 mice (purchased from SLAC, Shanghai) were adaptively fed for 1 week, and 50 animals were randomly selected. 3 mg/kg of bleomycin (BLM, purchased from SIGMA, #SIGMA-P9564) was administered through intratracheal (IT) injection to the mice to establish the IPF animal model. The remaining 10 animals were injected with physiological saline at a volume same as the injected BLM, and served as the normal group (N=10). The day of the injection of bleomycin was set as day 0 (DO); on day 6, the animals were randomly divided into 4 groups according to body weight: vehicle group (N=14), compound 007 administration group (N=12), compound 128 administration group (N=12), and positive control pirfenidone (purchased from SIGMA, #SIGMA-P2116) administration group (N=12).
The animals in each group were administered on days 8-21: the animals in the normal group and vehicle group were intragastrically administered with vehicle 1 (vehicle 1: 20% PEG 400+5% Tween 80+75% ddH2O), the animals in the compound 007 administration group were intragastrically administered with compound 007 (formulated with vehicle 1), the animals in the compound 128 administration group were intragastrically administered with compound 128 (formulated with vehicle 1), and the animals in the Pirfenidone administration group were intragastrically administered with pirfenidone (vehicle 2: 0.2% Methyl cellulose+0.5% Tween 80+99.3% ddH2O).
The body weight and its changes were recorded daily (the calculation formula for the body weight change on day 21: Body weight change on day 21=Body weight on day 21—Body weight on day 0), and the results are shown in FIGS. 1A and 1B.
The animals were euthanized 2 hours after the administration on day 21, and the alveolar lavage fluid was collected for white blood cell (WBC) counting. According to FIG. 3, there was no significant difference in the total white blood cell count in the alveolar lavage fluid of the animals in each administration group.
The left lung of the animals was fixed for histopathological examination, and the Ashcroft score of lung injury was performed by Masson Trichome staining. The scoring standard is as reported in Ashcroft T et al., Journal of clinical pathology, 1988. After 100 times magnification, each successive field was scored (ranging from 0 (normal lung)) to 8 (total fibrous obliteration within the field).
The mRNA levels of lung tissue fibrosis-associated protein collagen 1A1 (COL1A1) and tissue inhibitor of metal matrix protein 1 (TIMP-1) in the lung tissue after the administration was detected by a real-time fluorescent quantitative PCR method. Specifically, the lung tissue fragments were transferred to a centrifuge tube containing 1 mL of TRIzol reagent (Invitrogen, catalog No. 15596018). The lung tissue was ground at low temperature by a tissue grinder. Total RNA in cells was extracted. TransScript All-in-One First-Strand cDNA Synthesis SuperMix for qPCR (One-Step gDNA Removal) (TransGen, catalog No. AT341-02) kit was used for reverse transcription synthesis of cDNA. The mRNA expression changes of COL1A1 and TIMP-1 in the lung tissue was detected by a fluorescence quantitative PCR method.
In the real-time fluorescent quantitative PCR method, β-actin gene was used as the internal reference gene to normalize the data. All primer sequences were from the PrimerBank website, ID No.: 34328108a1 (COL1A1 primer), 6755795a1 (TIMP-1 primer) and 6671509a1 (β-actin primer). All of the 3 primers were synthesized by Invitrogen.

[2] = system: BLM-induced mouse IPF model; test: BLM-induced mouse IPF model, different doses (Example 3); type: in vivo, C57BL/6J mice
Experimental: After adaptive feeding, C57BL/6J mice were randomly divided into 2 groups according to body weight: in one group, 15 animals were administered with 50 μL physiological saline through intratracheal injection; and in another group, 90 animals were administered with 50 μL bleomycin (2.5 mg/kg) through intratracheal injection to establish the IPF model. On Day 7 after the establishment of the animal model, animals were randomly grouped according to the weight change (the difference between the weight on Day 7 after the establishment of the model and the day when the model was established). Drugs were administered for 14 consecutive days from the eighth day after the establishment of the animal model. […] The bronchoalveolar lavage fluid (BALF) was collected for white blood cell count. The left lung of the animals was fixed for preparing histopathological slide. H&E and Masson Trichome staining were performed to score the degree of lung injury and fibrosis. Pulmonary fibrosis scoring standard was according to “Standardized quantification of pulmonary fibrosis in histological samples”; lung tissue injury grade score is 0-16, mainly evaluated from four aspects including inflammatory cell infiltration (0-4), hemorrhage (0-4), interstitial and alveolar edema (0-4) and alveolar septum thickness (0-4). A higher score indicate a higher degree of lung tissue injury.

SMILES | survival rate of the animals at the end of the test ([1]; 100 mg/kg orally once a day, 14 days (days 8-21), FIG. 2) | collagen accumulation in lung and degree of lung fibrosis (Ashcroft score, Masson Trichome staining) ([1]; 100 mg/kg orally once a day, 14 days, FIGS. 4A and 4B) | therapeutic effect on lung fibrosis compared with pirfenidone and compound 128 ([1]; 007 and 128 at 100 mg/kg once a day, pirfenidone 90 mg/kg twice a day, FIGS. 4A and 4B) | up-regulation of TIMP-1 mRNA expression in the lung tissue induced by bleomycin [1] | up-regulation of COL1A1 mRNA expression in the lung tissue induced by bleomycin [1] | therapeutic effects compared with pirfenidone and nintedanib ([2]; 30 mpk orally once a day, pirfenidone 90 mg/kg twice a day, nintedanib 30 mg/kg once a day) | therapeutic effects compared with pirfenidone and nintedanib ([2]; 100 mpk orally once a day, pirfenidone 90 mg/kg twice a day, nintedanib 30 mg/kg once a day) | lung injury and fibrosis degree improvements compared with pirfenidone and nintedanib ([2]; 300 mpk orally once a day, pirfenidone 90 mg/kg twice a day, nintedanib 30 mg/kg once a day) | lung injury (H&E score 0-16) ([2]; compared with the model group, FIGS. 7A and 7B) | fibrosis degree (Masson Trichome score) ([2]; compared with the model group, FIGS. 8A and 8B) | infiltration of white blood cells in the lung (BALF white blood cell count) ([2]; compared with the model group, orally once a day, 14 days, FIG. 6)
Cn1c(C(=O)N2CC(F)(F)C2)cc2ccc(-c3nccc(Nc4ccc(-c5cn[nH]c5)cc4)n3)cc21 [Compound 007] | significantly higher | significantly reduced | significantly better than that of pirfenidone and compound 128 | significantly inhibited | significantly inhibited | equivalent to those of pirfenidone and nintedanib | equivalent to those of pirfenidone and nintedanib | superior to pirfenidone and nintedanib | significantly improved | significantly improved | significantly reduce
Cc1ccc(=O)n(-c2ccccc2)c1 [Pirfenidone, reference compound] |  |  |  | moderate inhibitory effect without statistic difference | significantly inhibited |  |  |  |  |  | 
